# According to paper PMC6366416, “Synthesis and in vitro anticancer activity of certain novel 1-(2-methyl-6-arylpyridin-3-yl)-3-phenylureas as apoptosis-inducing agents” (Journal of Enzyme Inhibition and Medicinal Chemistry, 2019):
# Key:
# Test in all cases: NCI one-dose SRB growth inhibition
# Type in all cases: cell-based
# A498 = details: Homo sapiens, Renal Cancer, 48 h, read-out: GI% A498
# Method in brief: (§1)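 Under the National Cancer Institute protocol, cultures were incubated with compound for 48 h; sulforhodamine B staining reported the remaining growth and viability.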
# A549/ATCC = details: Homo sapiens, A549, 48 h, Non-Small Cell Lung Cancer, read-out: GI% A549/ATCC
# Method in brief: as §1
# BT-549 = details: Homo sapiens, Breast Cancer, 48 h, read-out: GI% BT-549
# Method in brief: as §1
# CCRF-CEM = details: Homo sapiens, Leukemia, 48 h, read-out: GI% CCRF-CEM
# Method in brief: as §1
# COLO 205 = details: Homo sapiens, Colon Cancer, 48 h, read-out: GI% COLO 205
# Method in brief: as §1
# DU-145 = details: Homo sapiens, Prostate, 48 h, read-out: GI% DU-145
# Method in brief: as §1
# HOP-92 = details: Homo sapiens, Non-Small Cell Lung Cancer, 48 h, read-out: GI% HOP-92
# Method in brief: as §1
# IGROV1 = details: Homo sapiens, IGROV-1, Ovarian Cancer, 48 h, read-out: GI% IGROV1
# Method in brief: as §1
# KM12 = details: Homo sapiens, Colon Cancer, 48 h, read-out: GI% KM12
# Method in brief: as §1
# LOX IMVI = details: Homo sapiens, Melanoma, 48 h, read-out: GI% LOX IMVI
# Method in brief: as §1
# MDA-MB-435 = details: Homo sapiens, Melanoma, 48 h, read-out: GI% MDA-MB-435
# Method in brief: as §1
# MOLT-4 = details: Homo sapiens, Leukemia, 48 h, read-out: GI% MOLT-4
# Method in brief: as §1
# NCI-H226 = details: Homo sapiens, Non-Small Cell Lung Cancer, 48 h, read-out: GI% NCI-H226
# Method in brief: as §1
# NCI-H460 = details: Homo sapiens, Non-Small Cell Lung Cancer, 48 h, read-out: GI% NCI-H460
# Method in brief: as §1
# NCI-H522 = details: Homo sapiens, NCI-H522, 48 h, Non-Small Cell Lung Cancer, read-out: GI% NCI-H522
# Method in brief: as §1
# NCI/ADR-RES = details: Homo sapiens, Ovarian Cancer, 48 h, read-out: GI% NCI/ADR-RES
# Method in brief: as §1
# OVCAR-5 = details: Homo sapiens, Ovarian Cancer, 48 h, read-out: GI% OVCAR-5
# Method in brief: as §1
# OVCAR-8 = details: Homo sapiens, Ovarian Cancer, 48 h, read-out: GI% OVCAR-8
# Method in brief: as §1
# PC-3 = details: Homo sapiens, PC-3, 48 h, Prostate, read-out: GI% PC-3
# Method in brief: as §1
# RPMI-8226 = details: Homo sapiens, RPMI-8226, 48 h, Leukemia, read-out: GI% RPMI-8226
# Method in brief: as §1
# RXF 393 = details: Homo sapiens, Renal Cancer, 48 h, read-out: GI% RXF 393
# Method in brief: as §1
# SF-539 = details: Homo sapiens, CNS Cancer, 48 h, read-out: GI% SF-539
# Method in brief: as §1
# SK-MEL-2 = details: Homo sapiens, Melanoma, 48 h, read-out: GI% SK-MEL-2
# Method in brief: as §1
# SK-MEL-5 = details: Homo sapiens, Melanoma, 48 h, read-out: GI% SK-MEL-5
# Method in brief: as §1
# SK-OV-3 = details: Homo sapiens, Ovarian Cancer, 48 h, read-out: GI% SK-OV-3
# Method in brief: as §1
# SN12C = details: Homo sapiens, Renal Cancer, 48 h, read-out: GI% SN12C
# Method in brief: as §1
# SNB-75 = details: Homo sapiens, CNS Cancer, 48 h, read-out: GI% SNB-75
# Method in brief: as §1
# SR = details: Homo sapiens, 48 h, Leukemia, read-out: GI% SR
# Method in brief: as §1
# SW-620 = details: Homo sapiens, Colon Cancer, 48 h, read-out: GI% SW-620
# Method in brief: as §1
# T-47D = details: Homo sapiens, T47D, 48 h, Breast Cancer, read-out: GI% T-47D
# Method in brief: as §1
# UACC-257 = details: Homo sapiens, UACC-257, read-out: GI% UACC-257, Melanoma, 48 h
# Method in brief: as §1
# UACC-62 = details: Homo sapiens, UACC-62, 48 h, Melanoma, read-out: GI% UACC-62
# Method in brief: as §1
# UO-31 = details: Homo sapiens, Renal Cancer, 48 h, read-out: GI% UO-31
# Method in brief: as §1
SMILES,inhibition at 10 µM (A498) [%],inhibition at 10 µM (A549/ATCC) [%],inhibition at 10 µM (BT-549) [%],inhibition at 10 µM (CCRF-CEM) [%],inhibition at 10 µM (COLO 205) [%],inhibition at 10 µM (DU-145) [%],inhibition at 10 µM (HOP-92) [%],inhibition at 10 µM (IGROV1) [%],inhibition at 10 µM (KM12) [%],inhibition at 10 µM (LOX IMVI) [%],inhibition at 10 µM (MDA-MB-435) [%],inhibition at 10 µM (MOLT-4) [%],inhibition at 10 µM (NCI-H226) [%],inhibition at 10 µM (NCI-H460) [%],inhibition at 10 µM (NCI-H522) [%],inhibition at 10 µM (NCI/ADR-RES) [%],inhibition at 10 µM (OVCAR-5) [%],inhibition at 10 µM (OVCAR-8) [%],inhibition at 10 µM (PC-3) [%],inhibition at 10 µM (RPMI-8226) [%],further results
"Cc1nc(-c2ccc(F)cc2)ccc1NC(=O)Nc1ccc2c(c1)OCO2 [Compound 5d, 1-(Benzo[d][1, 3]dioxol-5-yl)-3-(6-(4-fluorophenyl)-2-methylpyridin-3-yl)urea]",< 10,13,< 10,< 10,< 10,< 10,< 10,< 10,11,34,< 10,< 10,< 10,< 10,45,< 10,< 10,< 10,< 10,< 10,inhibition at 10 µM (RXF 393): < 10%; inhibition at 10 µM (SF-539): < 10%; inhibition at 10 µM (SK-MEL-2): < 10%; inhibition at 10 µM (SK-MEL-5): 19%; inhibition at 10 µM (SK-OV-3): < 10%; inhibition at 10 µM (SN12C): < 10%; inhibition at 10 µM (SNB-75): < 10%; inhibition at 10 µM (SR): 11%; inhibition at 10 µM (SW-620): < 10%; inhibition at 10 µM (T-47D): < 10%; inhibition at 10 µM (UACC-257): 15%; inhibition at 10 µM (UACC-62): 20%; inhibition at 10 µM (UO-31): < 10%
"COc1ccc(NC(=O)Nc2ccc(-c3ccc(Cl)cc3)nc2C)cc1 [Compound 5f, 1-(6-(4-Chlorophenyl)-2-methylpyridin-3-yl)-3-(4-methoxyphenyl) urea]",< 10,25,< 10,18,< 10,< 10,< 10,< 10,< 10,21,< 10,14,19,< 10,40,< 10,< 10,< 10,< 10,14,inhibition at 10 µM (RXF 393): 21%; inhibition at 10 µM (SF-539): < 10%; inhibition at 10 µM (SK-MEL-2): < 10%; inhibition at 10 µM (SK-MEL-5): 38%; inhibition at 10 µM (SK-OV-3): < 10%; inhibition at 10 µM (SN12C): < 10%; inhibition at 10 µM (SNB-75): < 10%; inhibition at 10 µM (SR): 28%; inhibition at 10 µM (SW-620): < 10%; inhibition at 10 µM (T-47D): < 10%; inhibition at 10 µM (UACC-257): 26%; inhibition at 10 µM (UACC-62): 27%; inhibition at 10 µM (UO-31): < 10%
"CCOC(=O)c1ccc(NC(=O)Nc2ccc(-c3cccs3)nc2C)cc1 [Compound 5j, Ethyl 4-(3-(2-methyl-6-(thiophen-2-yl)pyridin-3-yl)ureido)benzoate]",< 10,35,15,50,< 10,< 10,< 10,< 10,18,10,< 10,44,< 10,43,52,< 10,< 10,< 10,52,56,inhibition at 10 µM (RXF 393): < 10%; inhibition at 10 µM (SF-539): < 10%; inhibition at 10 µM (SK-MEL-2): 11%; inhibition at 10 µM (SK-MEL-5): 22%; inhibition at 10 µM (SK-OV-3): < 10%; inhibition at 10 µM (SN12C): < 10%; inhibition at 10 µM (SNB-75): < 10%; inhibition at 10 µM (SR): 44%; inhibition at 10 µM (SW-620): < 10%; inhibition at 10 µM (T-47D): < 10%; inhibition at 10 µM (UACC-257): < 10%; inhibition at 10 µM (UACC-62): < 10%; inhibition at 10 µM (UO-31): < 10%
"CCOC(=O)c1ccc(NC(=O)Nc2ccc(-c3ccc(F)cc3)nc2C)cc1 [Compound 5c, Ethyl 4-(3-(6-(4-fluorophenyl)-2-methylpyridin-3-yl)ureido)benzoate]",< 10,25,< 10,< 10,< 10,< 10,< 10,< 10,< 10,24,< 10,< 10,12,< 10,24,< 10,< 10,< 10,< 10,13,inhibition at 10 µM (RXF 393): < 10%; inhibition at 10 µM (SF-539): < 10%; inhibition at 10 µM (SK-MEL-2): < 10%; inhibition at 10 µM (SK-MEL-5): 38%; inhibition at 10 µM (SK-OV-3): < 10%; inhibition at 10 µM (SN12C): < 10%; inhibition at 10 µM (SNB-75): < 10%; inhibition at 10 µM (SR): 16%; inhibition at 10 µM (SW-620): < 10%; inhibition at 10 µM (T-47D): < 10%; inhibition at 10 µM (UACC-257): 29%; inhibition at 10 µM (UACC-62): 29%; inhibition at 10 µM (UO-31): < 10%
